Data on 3 molecules can be found in patent publication US6682904B1, “Specific inhibitors of hyaluronidase 2, and methods of identifying and using same” (Deliatroph Pharmaceuticals, Inc., priority 2002, dated 2004).

The target of series [1] is T1, human plasma hyaluronidase (Homo sapiens, UniProt Q12794).
T1 construct: made in house
T1 sequence (Q12794 22-435): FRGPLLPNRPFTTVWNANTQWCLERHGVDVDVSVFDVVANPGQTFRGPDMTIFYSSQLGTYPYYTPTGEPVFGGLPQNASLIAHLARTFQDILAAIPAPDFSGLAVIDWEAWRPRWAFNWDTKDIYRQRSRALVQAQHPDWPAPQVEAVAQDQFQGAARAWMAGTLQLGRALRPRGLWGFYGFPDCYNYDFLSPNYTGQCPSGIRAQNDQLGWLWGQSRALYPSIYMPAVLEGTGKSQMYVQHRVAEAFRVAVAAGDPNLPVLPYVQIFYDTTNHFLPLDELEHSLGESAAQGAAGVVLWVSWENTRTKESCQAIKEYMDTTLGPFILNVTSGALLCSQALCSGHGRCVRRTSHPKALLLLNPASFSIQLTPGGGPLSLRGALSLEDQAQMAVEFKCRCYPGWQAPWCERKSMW
Put plainly: Effect of EDTA and added calcium on activity of purified human plasma hyaluronidase. In kind it is biochemical. Particulars: purified preparations of human plasma hyaluronidase. On the procedure: One hundred mg of human umbilical cord HA (ICN Pharmaceuticals; Irvine Calif.) was dissolved in 0.1 M MES, pH 5.0, to a final concentration of 1 mg/ml and allowed to dissolve for at least 24 hr at 4° C. prior to coupling of biotin. Sulfo-NHS (Pierce; Rockford Ill.) was added to the hyaluronate MES solution to a final concentration of 0.184 mg/ml. Biotin hydrazide (Pierce) was dissolved in DMSO as a stock solution of 100 mM and added to the HA solution to a final concentration of 1 mM. A stock solution of 1-ethyl-3-(3-dimethylaminopropyl) carbidodiimide (EDAC) was prepared as a 100 mM stock solution in distilled water and added to the HA biotin solution at a final concentration of 30 mM. This solution was left stirring overnight at 4° C. […]
(§1) The reaction was terminated by the addition of 200 μl/well of 6M Guanidine HCl followed by three washes of 300 μl/well with PBS, 2 M NaCl, 50 mM MgSO4, 0.05% TWEEN 20 detergent (Buffer B). […] The plate was incubated in the dark for 10-15 min, then read using a 492 nm filter in an ELISA plate reader (Titertek Multiskan PLUS; ICN) monitored by computer using the Delta Soft II plate reader software from Biometallics (Princeton N.J.). A standard curve using the bovine testicular hyaluronidase was generated by a four parameter curve fit of the commercial hyaluronidase preparation and unknown samples were interpolated through their absorbance at 492 nm.

Series [2] concerns human foreskin primary keratinocyte cultures. Put plainly: Hyaluronidase activity in primary foreskin keratinocyte cultures after calcium-induced differentiation. In kind it is cell-based. Particulars: 1.5 mM calcium compared to 0.05 mM calcium, 72 hr in culture. As for the experimental part:
Hyaluronidase activity also was characterized in normal keratinocytes. Primary foreskin keratinocyte cultures were generated from circumcision tissue from […]. Briefly, tissue was washed 5× in PBS with penicillin, streptomycin, and fungizone, followed by digestion overnight at 4° C. in dispase. Epithelium was stripped from mesenchymal tissue with forceps and digested in trypsin followed by plating on collagen-coated plates in KGM (keratinocyte growth medium) with 0.05 mM calcium (Clonetics; San Diego Calif.). Cells were used between the first and fourth passage. To test the effects of induction of differentiation on hyaluronidase activity, cells were plated into 6 well plates and, at confluence, the medium was either replaced with fresh KGM with 0.05 mM calcium or changed to KGM with 1.5 mM calcium.
Cell layers and conditioned media were harvested after 72 hr in culture. Cell layers were harvested with 60 mM octylglucoside with 50 U/ml DNase I (Boehringer Mannheim; Indianapolis Ind.) and Complete™ protease inhibitor cocktail (Boehringer Mannheim) in PBS. Cells were extracted for 30 min on ice followed by centrifugation at 10,000× g for 10 min. Conditioned media from each sample was treated with octylglucoside and protease inhibitors. […] Activity was expressed as rTRU/mg cellular protein.

Series [3] can be described thus: Microtiter-based hyaluronidase assay on immobilized biotinylated HA, pH dependence of enzyme activity. It counts as biochemical. As for the experimental part: One hundred mg of human umbilical cord HA (ICN Pharmaceuticals; Irvine Calif.) was dissolved in 0.1 M MES, pH 5.0, to a final concentration of 1 mg/ml and allowed to dissolve for at least 24 hr at 4° C. prior to coupling of biotin. Sulfo-NHS (Pierce; Rockford Ill.) was added to the hyaluronate MES solution to a final concentration of 0.184 mg/ml. Biotin hydrazide (Pierce) was dissolved in DMSO as a stock solution of 100 mM and added to the HA solution to a final concentration of 1 mM. A stock solution of 1-ethyl-3-(3-dimethylaminopropyl) carbidodiimide (EDAC) was prepared as a 100 mM stock solution in distilled water and added to the HA biotin solution at a final concentration of 30 mM. This solution was left stirring overnight at 4° C. Unlinked biotin and EDAC were removed by dialysis against water with 3 changes of 1000× volume of water. The dialyzed, biotinylated HA (bHA) was aliquoted and stored at −20° C. for up to several months.
Sulfo-NHS was diluted to 0.184 mg/ml in water with the bHA at a concentration of 0.2 mg/ml and pipetted into 96 well COVALINK-NH plates (NUNC; Placerville N.J.) at 50 μl per well. EDAC was diluted to 0.123 mg/ml in water and pipetted into the COVALINK-NH plates with the HA solution resulting in a final concentration of 10 μg/well hyaluronate and 6.15 μg/well EDAC. […]
as §1, with “nm. […]” for “nm.”

In the case of `[Ca+2]` [calcium], the “stimulatory effect on enzyme activity” value in series [1] (added calcium) is listed as “nor did added calcium have a stimulatory effect”. In addition, the “increase in hyaluronidase activity in conditioned media and cell layer” value in series [2] is recorded as “approximately 25 fold”.

As for `O=C(O)CN(CCN(CC(=O)O)CC(=O)O)CC(=O)O` [EDTA, reference compound], in series [1], the “inhibitory effect on enzyme activity” value is “no inhibitory effect”.

B1: Recombinant human plasma hyaluronidase: immunoaffinity purified recombinant human plasma hyaluronidase (HYAL1), acid-active enzyme (protein)
chain: T1 sequence (Q12794 22-435)
With B1, in series [3] (0.1 rTRU enzyme, 50 mM buffers pH 3-8 without NaCl, 30 min at 37° C.), the “pH optimum of hyaluronidase activity” value is 3.8 pH. Moreover, the “enzyme activity above pH 4.5” value in series [3] (above pH 4.5) is “no detectable activity”. Further, in series [3] (neutral pH), the “enzyme activity at neutral pH” value is “no activity was detected”.
